Results: ChEMBL document CHEMBL3351689, “The discovery of indole full agonists of the neurotensin receptor 1 (NTSR1)” (Bioorg Med Chem Lett, 2014)

What follows are molecules tested against T1, Neurotensin receptor type 1 (Homo sapiens, UniProt P30989) (assay: Antagonist activity at NTSR1 (unknown origin) expressed in CHO cells assessed as inhibition of NT(8-13) peptide-induced change in intracellular Ca2+ level preincubated for 45 mins by FLIPR assay).
Assay type: functional, cell-based

T1 sequence (P30989 whole entry): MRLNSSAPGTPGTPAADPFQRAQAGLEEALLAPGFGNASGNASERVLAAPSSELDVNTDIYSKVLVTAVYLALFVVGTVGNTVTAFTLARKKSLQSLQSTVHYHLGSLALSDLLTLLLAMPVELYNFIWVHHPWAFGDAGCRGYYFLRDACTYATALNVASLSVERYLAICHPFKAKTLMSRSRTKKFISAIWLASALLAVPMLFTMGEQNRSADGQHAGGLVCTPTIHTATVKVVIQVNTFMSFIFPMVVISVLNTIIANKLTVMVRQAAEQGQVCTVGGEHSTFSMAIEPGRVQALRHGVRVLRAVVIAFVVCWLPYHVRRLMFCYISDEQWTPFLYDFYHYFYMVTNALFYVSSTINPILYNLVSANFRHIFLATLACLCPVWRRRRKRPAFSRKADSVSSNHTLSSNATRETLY

IC50	Compound
82 nM	COc1cccc(OC)c1-c1cc(C(=O)NC2(C(=O)O)C3CC4CC(C3)CC2C4)nn1-c1ccnc2cc(Cl)ccc12 (centres undefined) [REMINERTANT]
4 nM	COc1cccc(OC)c1-c1cc(C(=O)NC2(C(=O)O)C3CC4CC(C3)CC2C4)nn1-c1ccc(C(=O)N(C)CCCN(C)C)cc1C(C)C (centres undefined)

These molecules were tested against T1, Neurotensin receptor type 1 (assay: Agonist activity at NTSR1 (unknown origin) expressed in CHO cells assessed as potentiation of NT(8-13) peptide-induced change in intracellular Ca2+ level preincubated for 45 mins by FLIPR assay).
Assay type: functional, cell-based

Compound	EC50
CC(C)C[C@H](NC(=O)Cn1ccc2cc(N)ccc21)C(=O)O	25.8 µM
O=C(O)CNC(=O)Cn1ccc2cc(-c3cccc4ccccc34)ccc21	> 100 µM
CC(C)C[C@@H](CO)NC(=O)Cn1ccc2cc(-c3cnc4ccccc4c3)ccc21	> 100 µM
CC(C)C[C@H](NC(=O)Cn1ccc2cc(-c3cccnc3)ccc21)C(=O)O	15.4 µM
COC(=O)[C@H](CC(C)C)NC(=O)Cn1ccc2cc(-c3cnc4ccccc4c3)ccc21	> 100 µM
COc1cccc(CC(=O)Nc2ccc3c(ccn3CC(=O)N[C@@H](CC(C)C)C(=O)O)c2)c1	24.2 µM
COC(=O)[C@@H](CC(C)C)NC(=O)Cn1ccc2cc(-c3cccc4ccccc34)ccc21	> 100 µM
CC(C)C[C@@H](NC(=O)Cn1ccc2cc(-c3cccc4ccccc34)ccc21)C(=O)O	> 100 µM
CC(C)C[C@H](NC(=O)Cn1ccc2cc(Br)ccc21)C(=O)O	9.99 µM
CC(C)C[C@@H](NC(=O)Cn1ccc2cc(-c3cnc4ccccc4c3)ccc21)C(=O)O	> 100 µM
CC(C)C[C@H](NC(=O)Cn1ccc2cc(NC(=O)c3ccnc4ccccc34)ccc21)C(=O)O	55.1 µM
CC(C)[C@H](NC(=O)Cn1ccc2cc(-c3cccc4ccccc34)ccc21)C(=O)O	> 100 µM
CC(C)C[C@H](NC(=O)Cn1ccc2cc(-c3ccccc3)ccc21)C(=O)O	9.44 µM
C[C@H](NC(=O)Cn1ccc2cc(-c3cnc4ccccc4c3)ccc21)C(=O)O	> 100 µM
CC(C)[C@H](NC(=O)Cn1ccc2cc(-c3cnc4ccccc4c3)ccc21)C(=O)O	> 100 µM
O=C(O)CNC(=O)Cn1ccc2cc(-c3cnc4ccccc4c3)ccc21	> 100 µM
COC(=O)[C@@H](CC(C)C)NC(=O)Cn1ccc2cc(-c3cnc4ccccc4c3)ccc21	> 100 µM
COC(=O)[C@H](CC(C)C)NC(=O)Cn1ccc2cc(-c3cccc4ccccc34)ccc21	> 100 µM

Second part, the molecule after the results:

EC50	Compound
9.39 µM	CC(C)C[C@H](NC(=O)Cn1ccc2cc(NS(=O)(=O)c3cccc4ccccc34)ccc21)C(=O)O
8.99 µM	CC(C)C[C@H](NC(=O)Cn1ccc2cc(NS(=O)(=O)c3cccc4cccnc34)ccc21)C(=O)O
7.72 µM	CC(C)C[C@H](NC(=O)Cn1ccc2cc(Nc3ccc4cnccc4c3)ccc21)C(=O)O
7.46 µM	CC(C)C[C@H](NC(=O)Cn1ccc2ccc(-c3cncc4ccccc34)cc21)C(=O)O
6.65 µM	CC(C)C[C@H](NC(=O)Cn1ccc2ccccc21)C(=O)O
5.17 µM	CC(C)C[C@H](NC(=O)Cn1ccc2cc(-c3cnc4ccccc4c3)ccc21)c1nn[nH]n1
4.96 µM	CC(C)C[C@H](NC(=O)Cn1ccc2cc(-c3cccc4cnccc34)ccc21)C(=O)O
4.33 µM	O=C(Cn1ccc2cc(-c3cnc4ccccc4c3)ccc21)N[C@@H](Cc1ccccc1)C(=O)O
3.28 µM	CC(C)C[C@H](NC(=O)Cn1ccc2ccc(-c3cnc4ccccc4c3)cc21)C(=O)O
3.26 µM	CC(C)C[C@H](NC(=O)Cn1ccc2cc(-c3cccc4ccccc34)ccc21)C(=O)O
3.24 µM	CC(C)C[C@H](NC(=O)Cn1ccc2cc(-c3cncc4ccccc34)ccc21)C(=O)O
2.85 µM	CC(C)C[C@H](NC(=O)Cn1ccc2ccc(-c3cccc4ccccc34)cc21)C(=O)O
2.12 µM	CC(C)C[C@H](NC(=O)Cn1ccc2cc(N(Cc3ccnc4ccccc34)Cc3ccnc4ccccc34)ccc21)C(=O)O
2.05 µM	CC(C)C[C@H](NC(=O)Cn1ccc2cc(-c3cnc4ccccc4c3)ccc21)C(=O)O
